Laboratory results reported in PubChem BioAssay (NCI).
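1) Cells in 96-well plates. 2) Compound, 48 h, 5 concentrations. 3) Linear interpolation between surrounding doses. 4) Unreached endpoint = highest concentration. GI50 marks 50% less growth. Definition used: TGI = concentration required for complete inhibition of growth.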

Key:
Experiment in all cases: DTP human tumour cell line panel, 48 h
ACHN renal = tested on: ACHN renal
NCI-H460 lung = tested on: NCI-H460 lung
TK-10 renal = tested on: TK-10 renal
SNB-75 CNS = tested on: SNB-75 CNS
HOP-62 NSCLC = tested on: HOP-62 NSCLC
SNB-19 CNS = tested on: SNB-19 CNS
SK-MEL-28 melanoma = tested on: SK-MEL-28 melanoma
MDA-MB-231 breast = tested on: MDA-MB-231 breast
HL-60(TB) leukemia = tested on: HL-60(TB) leukemia
NCI-H226 lung = tested on: NCI-H226 lung
SK-MEL-2 melanoma = tested on: SK-MEL-2 melanoma
A498 renal = tested on: A498 renal
HCT-15 colon = tested on: HCT-15 colon
RXF 393 renal = tested on: RXF 393 renal
OVCAR-8 ovarian = tested on: OVCAR-8 ovarian
OVCAR-5 ovarian = tested on: OVCAR-5 ovarian
RPMI-8226 leukemia = tested on: RPMI-8226 leukemia
U251 CNS = tested on: U251 CNS
IGROV1 ovarian = tested on: IGROV1 ovarian
LOX IMVI melanoma = tested on: LOX IMVI melanoma
SF-539 CNS = tested on: SF-539 CNS
HOP-92 NSCLC = tested on: HOP-92 NSCLC
DU-145 prostate = tested on: DU-145 prostate
SK-MEL-5 melanoma = tested on: SK-MEL-5 melanoma
SN12C renal = tested on: SN12C renal
UACC-257 melanoma = tested on: UACC-257 melanoma
MDA-N = tested on: MDA-N
UACC-62 melanoma = tested on: UACC-62 melanoma
SW-620 colon = tested on: SW-620 colon
OVCAR-4 ovarian = tested on: OVCAR-4 ovarian
HCT-116 colon = tested on: HCT-116 colon
SF-268 CNS = tested on: SF-268 CNS
MOLT-4 leukemia = tested on: MOLT-4 leukemia
SR leukemia = tested on: SR leukemia
SF-295 CNS = tested on: SF-295 CNS
EKVX NSCLC = tested on: EKVX NSCLC
MCF7 breast = tested on: MCF7 breast
NCI-H522 lung = tested on: NCI-H522 lung
T-47D breast = tested on: T-47D breast
CAKI-1 renal = tested on: CAKI-1 renal
786-0 renal = tested on: 786-0 renal
NCI/ADR-RES ovarian = tested on: NCI/ADR-RES ovarian
PC-3 prostate = tested on: PC-3 prostate
HCC-2998 colon = tested on: HCC-2998 colon
COLO 205 colon = tested on: COLO 205 colon
HT29 colon = tested on: HT29 colon
KM12 colon = tested on: KM12 colon
MDA-MB-435 = tested on: MDA-MB-435
BT-549 breast = tested on: BT-549 breast
HS 578T breast = tested on: HS 578T breast
OVCAR-3 ovarian = tested on: OVCAR-3 ovarian
M14 melanoma = tested on: M14 melanoma
A549 NSCLC = tested on: A549 NSCLC
K-562 leukemia = tested on: K-562 leukemia
SK-OV-3 ovarian = tested on: SK-OV-3 ovarian
UO-31 renal = tested on: UO-31 renal
MALME-3M melanoma = tested on: MALME-3M melanoma
CCRF-CEM leukemia = tested on: CCRF-CEM leukemia
NCI-H23 lung = tested on: NCI-H23 lung

CC(=N\O)/C(C)=N/O.CC(=N\O)/C(C)=N/O.CC(=N\O)/C(C)=N/O.CC(=N\O)/C(C)=N/O.[CH3-].[CH3-].[Co].[Co]
GI50 (ACHN renal): 35.4 µM | TGI (ACHN renal): > 100 µM | GI50 (NCI-H460 lung): 14.6 µM | TGI (NCI-H460 lung): 40.7 µM | GI50 (TK-10 renal): 28.5 µM | TGI (TK-10 renal): 88.8 µM | GI50 (SNB-75 CNS): 15.5 µM | TGI (SNB-75 CNS): 38.7 µM | GI50 (HOP-62 NSCLC): 14.7 µM | TGI (HOP-62 NSCLC): 59.2 µM | GI50 (SNB-19 CNS): 17.6 µM | TGI (SNB-19 CNS): > 100 µM | GI50 (SK-MEL-28 melanoma): 30.2 µM | TGI (SK-MEL-28 melanoma): 90.9 µM | GI50 (MDA-MB-231 breast): 25.3 µM | TGI (MDA-MB-231 breast): 76.7 µM | GI50 (HL-60(TB) leukemia): 17.6 µM | TGI (HL-60(TB) leukemia): 50.5 µM | GI50 (NCI-H226 lung): 22.8 µM | TGI (NCI-H226 lung): 42.4 µM | GI50 (SK-MEL-2 melanoma): 11.8 µM | TGI (SK-MEL-2 melanoma): 27.5 µM | GI50 (A498 renal): 32.1 µM | TGI (A498 renal): 77.1 µM | GI50 (HCT-15 colon): 24.8 µM | TGI (HCT-15 colon): > 100 µM | GI50 (RXF 393 renal): 16.7 µM | TGI (RXF 393 renal): 39.9 µM | GI50 (OVCAR-8 ovarian): 27.2 µM | TGI (OVCAR-8 ovarian): > 100 µM | GI50 (OVCAR-5 ovarian): 28.8 µM | TGI (OVCAR-5 ovarian): > 100 µM | GI50 (RPMI-8226 leukemia): 12.8 µM | TGI (RPMI-8226 leukemia): 44.2 µM | GI50 (U251 CNS): 11.7 µM | TGI (U251 CNS): 24.1 µM | GI50 (IGROV1 ovarian): 28 µM | TGI (IGROV1 ovarian): > 100 µM | GI50 (LOX IMVI melanoma): 14.4 µM | TGI (LOX IMVI melanoma): 31.2 µM | GI50 (SF-539 CNS): 11.3 µM | TGI (SF-539 CNS): 32.1 µM | GI50 (HOP-92 NSCLC): 26.2 µM | TGI (HOP-92 NSCLC): 71.3 µM | GI50 (DU-145 prostate): 30.9 µM | TGI (DU-145 prostate): > 100 µM | GI50 (SK-MEL-5 melanoma): 15.3 µM | TGI (SK-MEL-5 melanoma): 28.6 µM | GI50 (SN12C renal): 21.9 µM | TGI (SN12C renal): > 100 µM | GI50 (UACC-257 melanoma): 14.8 µM | TGI (UACC-257 melanoma): 34.9 µM | GI50 (MDA-N): 16.3 µM | TGI (MDA-N): > 100 µM | GI50 (UACC-62 melanoma): 15.1 µM | TGI (UACC-62 melanoma): 30.5 µM | GI50 (SW-620 colon): 29.4 µM | TGI (SW-620 colon): > 100 µM | GI50 (OVCAR-4 ovarian): 21.1 µM | TGI (OVCAR-4 ovarian): 83.5 µM | GI50 (HCT-116 colon): 7.75 µM | TGI (HCT-116 colon): > 100 µM | GI50 (SF-268 CNS): 21.6 µM | TGI (SF-268 CNS): 72.3 µM | GI50 (MOLT-4 leukemia): 23.8 µM | TGI (MOLT-4 leukemia): 72.4 µM | GI50 (SR leukemia): 16.2 µM | TGI (SR leukemia): 50.1 µM | GI50 (SF-295 CNS): 22.8 µM | TGI (SF-295 CNS): 76.5 µM | GI50 (EKVX NSCLC): 18.7 µM | TGI (EKVX NSCLC): 64.9 µM | GI50 (MCF7 breast): 16.9 µM | TGI (MCF7 breast): > 100 µM | GI50 (NCI-H522 lung): 12.2 µM | TGI (NCI-H522 lung): 27.8 µM | GI50 (T-47D breast): 26.5 µM | TGI (T-47D breast): > 100 µM | GI50 (CAKI-1 renal): 35.5 µM | TGI (CAKI-1 renal): > 100 µM | GI50 (786-0 renal): 18.4 µM | TGI (786-0 renal): > 100 µM | GI50 (NCI/ADR-RES ovarian): > 100 µM | TGI (NCI/ADR-RES ovarian): > 100 µM | GI50 (PC-3 prostate): 21.2 µM | TGI (PC-3 prostate): 63.8 µM | GI50 (HCC-2998 colon): 13.1 µM | TGI (HCC-2998 colon): 26.9 µM | GI50 (COLO 205 colon): 15 µM | TGI (COLO 205 colon): 29.8 µM | GI50 (HT29 colon): 23 µM | TGI (HT29 colon): 82.5 µM | GI50 (KM12 colon): 27 µM | TGI (KM12 colon): > 100 µM | GI50 (MDA-MB-435): 15 µM | TGI (MDA-MB-435): 39.9 µM | GI50 (BT-549 breast): 15.1 µM | TGI (BT-549 breast): 33.8 µM | GI50 (HS 578T breast): 22 µM | TGI (HS 578T breast): 92.5 µM | GI50 (OVCAR-3 ovarian): 15.9 µM | TGI (OVCAR-3 ovarian): 78.8 µM | GI50 (M14 melanoma): 13 µM | TGI (M14 melanoma): 29.8 µM | GI50 (A549 NSCLC): 39.5 µM | TGI (A549 NSCLC): > 100 µM | GI50 (K-562 leukemia): 20.4 µM | TGI (K-562 leukemia): > 100 µM | GI50 (SK-OV-3 ovarian): 34.5 µM | TGI (SK-OV-3 ovarian): > 100 µM | GI50 (UO-31 renal): 19.3 µM | TGI (UO-31 renal): 48.5 µM | GI50 (MALME-3M melanoma): 16.1 µM | TGI (MALME-3M melanoma): 30.7 µM

CC(=O)c1cc(I)c(O)c2ncccc12
TGI (ACHN renal): 5.6 µM | TGI (NCI-H460 lung): > 10 µM | TGI (TK-10 renal): > 10 µM | TGI (HOP-62 NSCLC): > 10 µM | TGI (SNB-19 CNS): > 10 µM | TGI (SK-MEL-28 melanoma): > 10 µM | TGI (MDA-MB-231 breast): 8.09 µM | TGI (HL-60(TB) leukemia): 4.28 µM | TGI (NCI-H226 lung): 5.7 µM | TGI (SK-MEL-2 melanoma): > 10 µM | TGI (A498 renal): 6.53 µM | TGI (HCT-15 colon): > 10 µM | TGI (RXF 393 renal): 8.76 µM | TGI (OVCAR-8 ovarian): 7.38 µM | TGI (OVCAR-5 ovarian): > 10 µM | TGI (RPMI-8226 leukemia): > 10 µM | TGI (U251 CNS): > 10 µM | TGI (IGROV1 ovarian): 7.44 µM | TGI (LOX IMVI melanoma): > 10 µM | TGI (SF-539 CNS): 6.57 µM | TGI (HOP-92 NSCLC): 6.19 µM | TGI (DU-145 prostate): 8.45 µM | TGI (SK-MEL-5 melanoma): 5.08 µM | TGI (SN12C renal): > 10 µM | TGI (UACC-257 melanoma): 6.06 µM | TGI (MDA-N): > 10 µM | TGI (UACC-62 melanoma): 7.9 µM | TGI (SW-620 colon): > 10 µM | TGI (OVCAR-4 ovarian): 6.82 µM | TGI (HCT-116 colon): 5.93 µM | TGI (SF-268 CNS): 9.86 µM | TGI (MOLT-4 leukemia): 5.77 µM | TGI (CCRF-CEM leukemia): 4.45 µM | TGI (SR leukemia): 8.98 µM | TGI (NCI-H23 lung): 8.45 µM | TGI (SF-295 CNS): 9.61 µM | TGI (EKVX NSCLC): > 10 µM | TGI (MCF7 breast): > 10 µM | TGI (NCI-H522 lung): > 10 µM | TGI (T-47D breast): > 10 µM | TGI (CAKI-1 renal): > 10 µM | TGI (786-0 renal): 9.07 µM | TGI (NCI/ADR-RES ovarian): 8.24 µM | TGI (PC-3 prostate): > 10 µM | TGI (HCC-2998 colon): > 10 µM | TGI (COLO 205 colon): 7.81 µM | TGI (HT29 colon): > 10 µM | TGI (KM12 colon): > 10 µM | TGI (MDA-MB-435): > 10 µM | TGI (BT-549 breast): > 10 µM | TGI (HS 578T breast): > 10 µM | TGI (OVCAR-3 ovarian): 6.57 µM | TGI (M14 melanoma): 4.09 µM | TGI (A549 NSCLC): > 10 µM | TGI (K-562 leukemia): > 10 µM | TGI (SK-OV-3 ovarian): > 10 µM | TGI (MALME-3M melanoma): 6.97 µM
